Assay results from US6030823A, “D-aminoacylase” (Daicel Chemical Industries, Ltd., priority 1998, dated 2000).
Values joined by “and” are separate entries in the source; they are usually repeats but may differ in a detail not shown here. Equal values may be shown once. Read-outs that look alike come from different tables or passages of the source.

How the values were obtained:
[1] = system: Sebekia benihana IFO14309; test: Induction of D-aminoacylase, experiment 1 (PY liquid medium, 0.10% inducer); format: cell-based; details: 20 mM N-acetyl-D-methionine, 30° C., 20 min
Protocol: First, Sebekia benihana IFO14309 was cultured with shaking for 74 hours in test tubes, each containing 8.0 ml of PY liquid medium (0.2% glycerol, 2.0% yeast extract, 2.0% polypeptone, pH 7.3) supplemented with 0.10% DL-leucine, 0.10% N-acetyl-DL-leucine, 0.10% DL-methionine, 0.10% N-acetyl-DL-methionine, DL-valine, or 0.10% N-acetyl-DL-valine as inducers (experiment 1).
(§1) From the culture broth obtained in experiments 1, 2, and 3, the cells were collected by centrifugation at 8000 rpm (7000×g) for 20 min with a refrigerated centrifuge (Hitachi Koki Co., Ltd.). The collected cells were washed with 50 mM Tris-HCl buffer (pH 7.5), collected again by centrifugation using the same centrifuge, then stored at -20° C.
(§2) The stored cells were suspended in 20 ml of 50 mM Tris-HCl buffer (pH 7.5) and were disrupted by sonication at 200 W for 15 min. The lysate was centrifuged at 15,000 rpm for 30 min with the above centrifuge, and the supernatant was obtained as a crude enzyme solution.
(§3) The enzymatic reaction was performed in 1.0 ml of a reaction system containing 20 mM N-acetyl-D-methionine, 50 mM Tris-HCl buffer (pH 7.5), 1 mM CoCl2, and 100 μl of the enzyme solution at 30° C. for 20 min (experiment 1), 10 min (experiment 2), and 5 min (experiment 3). The reaction was stopped by adding a TCA solution.

[2] = system: Sebekia benihana IFO14309; test: Induction of D-aminoacylase, experiment 2 (seed culture, PY liquid medium, 0.10% inducer); format: cell-based; details: 20 mM N-acetyl-D-methionine, 30° C., 10 min
Protocol: Second, a seed culture was prepared by incubating the strain in test tubes, each containing 5.0 ml of PY liquid medium for 71 hours. Then, 0.4 ml of the seed culture was inoculated with a 2-ml Komagome pipette into test tubes, each containing 8.0 ml of PY liquid medium supplemented with 0.10% DL-glutamine, 0.10% DL-histidine, 0.10% DL-isoleucine, 0.10% DL-phenylalanine, 0.10% proline, 0.10% DL-threonine, 0.10% DL-tryptophan, or 0.10% DL-valine as inducers, and cultivated for 74 hours with shaking (experiment 2).
as §1, §2, §3

[3] = system: D-aminoacylase derived from Sebekia benihana IFO14309; test: Influences of inhibitors on the activity of the enzyme; format: biochemical
Protocol: (§4) The enzymatic reaction was performed in the same manner as in (1) except that the metal salts and enzyme inhibitors listed in Tables 10 and 11 (1 mM or 10 mM) were added to the reaction mixture.

[4] = system: D-aminoacylase derived from Sebekia benihana IFO14309; format: biochemical
Protocol: as §4

[5] = system: D-aminoacylase derived from Sebekia benihana IFO14309; test: Substrate specificity of the aminoacylase; format: biochemical; details: 20 mM substrate, 50 mM Tris-HCl pH 7.5, 30° C., 5 min
Protocol: The substrate specificity of the aminoacylase was examined using N-acetyl-D-methionine, N-acetyl-D-alanine, N-acetyl-D-aspartic acid, N-acetyl-D-leucine, N-acetyl-D-phenylalanine, N-acetyl-D-tryptophan, N-acetyl-D-valine, N-acetyl-L-leucine, N-acetyl-L-methionine, and N-acetyl-L-valine as substrates. The enzyme activity was assayed as follows. A 0.050-ml aliquot of an enzyme solution was added to 0.950 ml of 20 mM N-acetyl-D(or L)-amino acid in 50 mM Tris-HCl buffer (pH 7.5) and incubated at 30° C. for 5 min. The reaction was then stopped by adding 0.50 ml of a TCA solution to the reaction mixture. The relative activity is shown in Table 5, taking the activity for N-acetyl-L-methionine as 100%.

[6] = system: Sebekia benihana IFO14309; test: Induction of D-aminoacylase, experiment 3 (seed culture, 231 liquid medium, 0.05% inducer); format: cell-based; details: for Activity / Specific activity: experiment 3, 20 mM N-acetyl-D-methionine, 30° C., 5 min; for Induction of the enzyme (in words): used as inducers (Table 3)
Protocol: Third, a seed culture was prepared by incubating the strain in test tubes, each containing 5.0 ml of PY liquid medium for 51 hours with shaking. The seed culture (0.4 ml) was then inoculated with a 2-ml Komagome pipette into test tubes, each containing 8.0 ml of 231 liquid medium (1.0% maltose; 0.2% N.Z.Amine, Type A; 0.1% yeast extract; 0.1% meat extract; pH 7.3) supplemented with 0.05% D-phenylalanine, 0.05% D-tryptophan, 0.05% D-valine, 0.05% L-phenylalanine, 0.05% L-tryptophan, or 0.05% L-valine as inducers, and cultivated for 48 hours with shaking (experiment 3).
as §1, §2, §3

[7] = column 1 mM, PCMB was used at 0.01 mM
[8] = column 10 mM, PCMB was used at 0.1 mM

## CC(=O)NC(CC(C)C)C(=O)O (racemic) [N-Ac-DL-Leucine, N-acetyl-DL-leucine]
[1]
  Activity: 0.158 U/ml of broth
  Specific activity: 0.0545 U/mg

## CC(C)CC(N)C(=O)O (racemic) [DL-Leucine, DL-leucine]
[1]
  Activity: 0.315 U/ml of broth
  Specific activity: 0.0967 U/mg

## NC(Cc1c[nH]c2ccccc12)C(=O)O (racemic) [DL-Trp, DL-tryptophan]
[2]
  Activity: 0.312 U/ml of broth
  Specific activity: 0.119 U/mg

## CC(=O)NC(C(=O)O)C(C)C (racemic) [N-Ac-DL-Valine, N-acetyl-DL-valine]
[1]
  Activity: 0.114 U/ml of broth
  Specific activity: 0.0341 U/mg

## O=C(O)c1cc[c]([Hg][Cl])cc1 [PCMB, p-chloromercuribenzoic acid]
[3]
  Effect of inhibitors on the enzyme (in words): inhibited
[3]; [7]
  D-Met: 1.8 mM
  Residual activity: 112%
[3]; [8]
  D-Met: 1.6 mM
  Residual activity: 100%

## [Cl-].[K+] [KCl]
[4]; metal salt 1 mM
  D-Met: 1.2 mM
  Residual activity: 100%
[4]; metal salt 10 mM
  D-Met: 1.1 mM
  Residual activity: 92%

## [Cl][Ni][Cl] [NiCl2]
[4]
  Effect of metal ions on the enzyme (in words): inhibited
[4]; metal salt 1 mM
  D-Met: 0.53 mM
  Residual activity: 44%
[4]; metal salt 10 mM
  D-Met: 0.035 mM
  Residual activity: 2.9%

## CC(=O)N[C@H](Cc1c[nH]c2ccccc12)C(=O)O [N-Ac-D-Trp, N-acetyl-D-tryptophan]
[5]
  Relative activity: 64%

## [Cl][Fe][Cl] [FeCl2]
[4]
  Effect of metal ions on the enzyme (in words): inhibited
[4]; metal salt 1 mM
  D-Met: 0.24 mM
  Residual activity: 20%
[4]; metal salt 10 mM
  D-Met: 0.035 mM
  Residual activity: 2.9%

## CC(=O)N[C@H](Cc1ccccc1)C(=O)O [N-Ac-D-Phe, N-acetyl-D-phenylalanine]
[5]
  Relative activity: 100%

## O=C(O)[C@@H]1CCCN1 (racemic) [DL-Pro, proline]
[2]
  Activity: 0.00867 U/ml of broth
  Specific activity: 0.00286 U/mg

## N[C@H](Cc1ccccc1)C(=O)O [D-Phe, D-phenylalanine]
[6]
  Activity: 0.479 U/ml of broth
  Specific activity: 0.303 U/mg
  Induction of the enzyme (in words): induced well

## CC(=O)N[C@H](CC(N)=O)C(=O)O [N-Ac-D-Asn, N-acetyl-D-asparagine]
[5]
  Relative activity: 1.4%

## CSCCC(N)C(=O)O (racemic) [DL-Methionine, DL-methionine]
[1]
  Activity: 0.177 U/ml of broth
  Specific activity: 0.0475 U/mg

## N[C@@H](Cc1c[nH]c2ccccc12)C(=O)O [L-Trp, L-tryptophan]
[6]
  Activity: 0.0243 U/ml of broth
  Specific activity: 0.0134 U/mg

## [F-].[Na+] [NaF]
[3]; inhibitor 1 mM
  D-Met: 1.6 mM
  Residual activity: 100%
[3]; inhibitor 10 mM
  D-Met: 1.4 mM
  Residual activity: 88%

## CC(=O)N[C@H](C)C(=O)O [N-Ac-D-Ala, N-acetyl-D-alanine]
[5]
  Relative activity: 1.1%

## [Cl-].[Cl-].[Mg+2] [MgCl2]
[4]; metal salt 1 mM
  D-Met: 1.3 mM
  Residual activity: 108%
[4]; metal salt 10 mM
  D-Met: 1.2 mM
  Residual activity: 100%

## [Cl-].[Cl-].[Co+2] [CoCl2]
[4]
  Effect of metal ions on the enzyme (in words): inhibited
[4]; metal salt 1 mM
  D-Met: 0.65 mM
  Residual activity: 54%
[4]; metal salt 10 mM
  D-Met: 0.11 mM
  Residual activity: 9.2%

## [Cl-].[Cl-].[Zn+2] [ZnCl2]
[4]
  Effect of metal ions on the enzyme (in words): inhibited
[4]; metal salt 1 mM
  D-Met: 0.50 mM
  Residual activity: 42%
[4]; metal salt 10 mM
  D-Met: 0 mM
  Residual activity: 0%

## [Cl][Hg][Cl] [HgCl2]
[4]
  Effect of metal ions on the enzyme (in words): inhibited
[4]; metal salt 1 mM
  D-Met: 0.38 mM
  Residual activity: 32%
[4]; metal salt 10 mM
  D-Met: 0 mM
  Residual activity: 0%

## O=C(O)CI [ICH2 COOH, iodoacetic acid]
[3]
  Effect of inhibitors on the enzyme (in words): inhibited

## O=C(O)CN(CCN(CC(=O)O)CC(=O)O)CC(=O)O [EDTA · 2Na]
[4]
  D-Met: 1.2 mM and 1.3 mM
  Residual activity: 108%

## CC(C)[C@H](N)C(=O)O [L-Val, L-valine]
[6]
  Activity: 0.0265 U/ml of broth
  Specific activity: 0.0161 U/mg

## NC(Cc1ccccc1)C(=O)O (racemic) [DL-Phe, DL-phenylalanine]
[2]
  Activity: 0.190 U/ml of broth
  Specific activity: 0.0701 U/mg

## CSCCC(NC(C)=O)C(=O)O (racemic) [N-Ac-DL-Methionine, N-acetyl-DL-methionine]
[1]
  Activity: 0.0713 U/ml of broth
  Specific activity: 0.0186 U/mg

## NC(Cc1c[nH]cn1)C(=O)O (racemic) [DL-His, DL-histidine]
[2]
  Activity: 0.0144 U/ml of broth
  Specific activity: 0.0064 U/mg

## CCN1C(=O)C=CC1=O [N-ethyl-maleimide]
[3]; inhibitor 1 mM
  D-Met: 1.7 mM
  Residual activity: 106%
[3]; inhibitor 10 mM
  D-Met: 1.1 mM
  Residual activity: 69%

## C[C@@H](O)[C@H](N)C(=O)O (racemic) [DL-Thr, DL-threonine]
[2]
  Activity: 0.0163 U/ml of broth
  Specific activity: 0.00587 U/mg

## [Cl][Mn][Cl] [MnCl2]
[4]; metal salt 1 mM
  D-Met: 1.3 mM
  Residual activity: 108%
[4]; metal salt 10 mM
  D-Met: 0.73 mM
  Residual activity: 61%

## N[C@H](Cc1c[nH]c2ccccc12)C(=O)O [D-Trp, D-tryptophan]
[6]
  Activity: 0.913 U/ml of broth
  Specific activity: 0.537 U/mg
  Induction of the enzyme (in words): induced well

## N[C@@H](Cc1ccccc1)C(=O)O [L-Phe, L-phenylalanine]
[6]
  Activity: 0.00973 U/ml of broth
  Specific activity: 0.0064 U/mg

## O=C(O)CN(CCN(CC(=O)O)CC(=O)O)CC(=O)O [EDTA]
[3]
  D-Met: 1.6 mM
  Effect of inhibitors on the enzyme (in words): inhibited
  Residual activity: 100%

## [Cl-].[Na+] [NaCl]
[4]
  D-Met: 1.3 mM and 1.1 mM
  Residual activity: 108% and 92%

## CC[C@H](C)[C@H](N)C(=O)O (racemic) [DL-Ile, DL-isoleucine]
[2]
  Activity: 0.214 U/ml of broth
  Specific activity: 0.0799 U/mg

## OC(CS)C(O)CS (stereo not shown) [DTT]
[3]; inhibitor 1 mM
  D-Met: 0.13 mM
  Residual activity: 8.1%
[3]; inhibitor 10 mM
  D-Met: 0.055 mM
  Residual activity: 3.4%

## CC(C)C(N)C(=O)O (racemic) [DL-Valine, DL-valine]
[1]
  Activity: 0.429 U/ml of broth
  Specific activity: 0.133 U/mg
[2]
  Activity: 0.239 U/ml of broth
  Specific activity: 0.0920 U/mg

## CC(C)[C@@H](N)C(=O)O [D-Val, D-valine]
[6]
  Activity: 1.27 U/ml of broth
  Specific activity: 0.780 U/mg
  Induction of the enzyme (in words): induced well

## [Cl][Cu][Cl] [CuCl2]
[4]
  Effect of metal ions on the enzyme (in words): inhibited
[4]; metal salt 1 mM
  D-Met: 0.13 mM
  Residual activity: 11%
[4]; metal salt 10 mM
  D-Met: 0 mM
  Residual activity: 0%

## [Ba+2].[Cl-].[Cl-] [BaCl2]
[4]; metal salt 1 mM
  D-Met: 1.2 mM
  Residual activity: 100%
[4]; metal salt 10 mM
  D-Met: 1.1 mM
  Residual activity: 92%

## c1ccc(-c2ccccn2)nc1 [2,2'-Bipyridyl]
[3]; inhibitor 1 mM
  D-Met: 1.6 mM
  Residual activity: 100%
[3]; inhibitor 10 mM
  D-Met: 1.4 mM
  Residual activity: 88%

## [Ca+2].[Cl-].[Cl-] [CaCl2]
[4]; metal salt 1 mM
  D-Met: 1.3 mM
  Residual activity: 108%
[4]; metal salt 10 mM
  D-Met: 1.1 mM
  Residual activity: 92%
